Calls of active or inactive are those of the source.
Experiments:
[1] = molecular target: T1, Cytochrome P450 2C9 (Homo sapiens, UniProt P11712); settings: Potency
[2] = molecular target: Cytochrome P450 2D6 (Homo sapiens, UniProt P10635);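 note: CYP2D6 member of a cytochrome P450 panel assay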
[3] = molecular target: Cytochrome P450 2C19 (Homo sapiens, UniProt P33261); experiment: Cytochrome panel assay with activity outcomes. Panel member name: p450-cyp2c19 Compounds with AC50 equal or less than 10 uM are considered active; format: functional; settings: read-out: AC50
Chain of Cytochrome P450 2C19 (P33261 whole entry): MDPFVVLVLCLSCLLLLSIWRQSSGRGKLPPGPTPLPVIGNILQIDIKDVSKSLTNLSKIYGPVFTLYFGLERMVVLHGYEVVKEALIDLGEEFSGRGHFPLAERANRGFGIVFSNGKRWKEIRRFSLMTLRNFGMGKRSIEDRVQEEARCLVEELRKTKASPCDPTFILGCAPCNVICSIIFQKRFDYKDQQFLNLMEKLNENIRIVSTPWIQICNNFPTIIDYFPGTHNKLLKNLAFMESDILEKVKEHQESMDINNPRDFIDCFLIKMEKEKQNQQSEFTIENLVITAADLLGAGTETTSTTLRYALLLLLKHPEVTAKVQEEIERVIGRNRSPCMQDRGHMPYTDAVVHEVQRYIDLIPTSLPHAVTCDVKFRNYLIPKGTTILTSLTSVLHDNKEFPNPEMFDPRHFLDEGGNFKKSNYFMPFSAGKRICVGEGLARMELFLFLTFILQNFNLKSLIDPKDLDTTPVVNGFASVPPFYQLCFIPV

[4] = cytotoxicity in HEK-293T cells, dose response, cytotoxicity control for BCR NF-kB inhibitor project, luminescence, B-cell screen hits (AID 489021); format: functional, cell-based;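 note: HEK-293T cells carrying an NF-kB luciferase reporter; cells exposed to compound for about 14 hours before viability readout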
[5] = molecular target: T2, Alkaline phosphatase, tissue-nonspecific isozyme (Homo sapiens, UniProt P05186); experiment: human TNAP enzyme inhibitors, SAR follow-up, biochemical, luminescent, dose response (AID 1056)
T2 sequence (P05186 whole entry): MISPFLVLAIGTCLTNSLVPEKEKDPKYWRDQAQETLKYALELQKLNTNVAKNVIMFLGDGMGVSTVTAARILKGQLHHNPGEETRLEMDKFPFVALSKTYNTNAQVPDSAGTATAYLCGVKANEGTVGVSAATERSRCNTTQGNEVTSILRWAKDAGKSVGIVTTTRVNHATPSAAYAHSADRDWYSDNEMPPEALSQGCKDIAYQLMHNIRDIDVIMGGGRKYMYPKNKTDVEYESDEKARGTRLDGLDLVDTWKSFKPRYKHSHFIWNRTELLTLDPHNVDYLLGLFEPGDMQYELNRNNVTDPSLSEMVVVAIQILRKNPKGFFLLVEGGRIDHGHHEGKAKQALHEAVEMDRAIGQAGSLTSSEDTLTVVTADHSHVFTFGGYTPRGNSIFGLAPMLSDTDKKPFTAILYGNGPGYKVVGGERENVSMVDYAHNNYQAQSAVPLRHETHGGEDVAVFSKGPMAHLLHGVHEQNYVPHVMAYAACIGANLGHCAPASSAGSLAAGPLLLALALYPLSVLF

[6] = molecular target: Glyceraldehyde-3-phosphate dehydrogenase (Homo sapiens, UniProt P04406)
Chain of Glyceraldehyde-3-phosphate dehydrogenase (P04406 whole entry): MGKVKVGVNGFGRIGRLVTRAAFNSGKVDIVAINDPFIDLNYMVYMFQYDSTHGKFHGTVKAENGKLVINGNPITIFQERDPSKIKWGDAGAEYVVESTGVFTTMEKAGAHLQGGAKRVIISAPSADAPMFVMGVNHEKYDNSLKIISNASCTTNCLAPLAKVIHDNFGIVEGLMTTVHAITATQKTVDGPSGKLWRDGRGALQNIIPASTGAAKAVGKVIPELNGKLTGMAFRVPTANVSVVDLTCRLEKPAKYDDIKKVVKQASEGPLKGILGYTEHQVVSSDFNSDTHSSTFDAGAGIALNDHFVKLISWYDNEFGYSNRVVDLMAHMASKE

[7] = system: Vero; experiment: Vero E6 cell cytotoxicity, SAR follow-up, cytotoxicity control for West Nile virus antiviral project, synthesized analogs (AID 2244); format: functional; settings: Chlorocebus sabaeus
[8] = molecular target: T3, fMet-Leu-Phe receptor (Homo sapiens, UniProt P21462); experiment: FPR ligands, dose response (AID 519); format: functional
T3 sequence (P21462 whole entry): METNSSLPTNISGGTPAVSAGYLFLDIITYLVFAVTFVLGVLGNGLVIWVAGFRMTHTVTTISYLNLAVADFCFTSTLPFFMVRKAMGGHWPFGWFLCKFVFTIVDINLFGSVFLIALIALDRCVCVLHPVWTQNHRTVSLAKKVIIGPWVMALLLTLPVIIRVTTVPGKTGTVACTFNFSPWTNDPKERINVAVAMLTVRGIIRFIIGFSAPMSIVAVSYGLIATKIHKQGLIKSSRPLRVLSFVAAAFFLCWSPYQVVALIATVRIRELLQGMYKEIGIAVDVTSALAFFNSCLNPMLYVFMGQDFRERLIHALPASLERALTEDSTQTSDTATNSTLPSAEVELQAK

[9] = molecular target: T4, Estrogen receptor (Homo sapiens, UniProt P03372);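 note: potency for inhibiting coactivator peptide recruitment to the receptor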
T4 sequence (P03372 whole entry): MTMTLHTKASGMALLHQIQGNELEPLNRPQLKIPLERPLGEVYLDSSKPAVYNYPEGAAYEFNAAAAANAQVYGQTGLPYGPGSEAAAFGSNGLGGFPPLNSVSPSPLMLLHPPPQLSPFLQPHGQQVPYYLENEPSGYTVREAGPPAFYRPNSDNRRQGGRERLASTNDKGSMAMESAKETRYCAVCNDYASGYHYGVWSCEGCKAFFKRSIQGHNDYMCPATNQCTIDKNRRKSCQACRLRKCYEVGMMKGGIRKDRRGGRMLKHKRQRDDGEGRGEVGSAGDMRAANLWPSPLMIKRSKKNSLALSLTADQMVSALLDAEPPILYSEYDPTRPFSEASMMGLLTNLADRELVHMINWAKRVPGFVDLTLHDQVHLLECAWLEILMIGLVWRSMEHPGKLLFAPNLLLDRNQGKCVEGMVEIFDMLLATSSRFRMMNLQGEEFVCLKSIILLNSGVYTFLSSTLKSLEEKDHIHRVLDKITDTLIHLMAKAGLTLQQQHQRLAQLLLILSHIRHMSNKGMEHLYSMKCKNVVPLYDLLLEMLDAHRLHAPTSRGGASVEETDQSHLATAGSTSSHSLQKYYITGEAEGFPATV

[10] = molecular target: T1, Cytochrome P450 2C9
[11] = system: HEK293; experiment: cells; settings: Homo sapiens
[12] = molecular target: Voltage-dependent T-type calcium channel subunit alpha-1H (Homo sapiens, UniProt O95180); format: functional;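 note: channel activity triggered by adding a high calcium stimulation buffer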
Chain of Voltage-dependent T-type calcium channel subunit alpha-1H (O95180 whole entry): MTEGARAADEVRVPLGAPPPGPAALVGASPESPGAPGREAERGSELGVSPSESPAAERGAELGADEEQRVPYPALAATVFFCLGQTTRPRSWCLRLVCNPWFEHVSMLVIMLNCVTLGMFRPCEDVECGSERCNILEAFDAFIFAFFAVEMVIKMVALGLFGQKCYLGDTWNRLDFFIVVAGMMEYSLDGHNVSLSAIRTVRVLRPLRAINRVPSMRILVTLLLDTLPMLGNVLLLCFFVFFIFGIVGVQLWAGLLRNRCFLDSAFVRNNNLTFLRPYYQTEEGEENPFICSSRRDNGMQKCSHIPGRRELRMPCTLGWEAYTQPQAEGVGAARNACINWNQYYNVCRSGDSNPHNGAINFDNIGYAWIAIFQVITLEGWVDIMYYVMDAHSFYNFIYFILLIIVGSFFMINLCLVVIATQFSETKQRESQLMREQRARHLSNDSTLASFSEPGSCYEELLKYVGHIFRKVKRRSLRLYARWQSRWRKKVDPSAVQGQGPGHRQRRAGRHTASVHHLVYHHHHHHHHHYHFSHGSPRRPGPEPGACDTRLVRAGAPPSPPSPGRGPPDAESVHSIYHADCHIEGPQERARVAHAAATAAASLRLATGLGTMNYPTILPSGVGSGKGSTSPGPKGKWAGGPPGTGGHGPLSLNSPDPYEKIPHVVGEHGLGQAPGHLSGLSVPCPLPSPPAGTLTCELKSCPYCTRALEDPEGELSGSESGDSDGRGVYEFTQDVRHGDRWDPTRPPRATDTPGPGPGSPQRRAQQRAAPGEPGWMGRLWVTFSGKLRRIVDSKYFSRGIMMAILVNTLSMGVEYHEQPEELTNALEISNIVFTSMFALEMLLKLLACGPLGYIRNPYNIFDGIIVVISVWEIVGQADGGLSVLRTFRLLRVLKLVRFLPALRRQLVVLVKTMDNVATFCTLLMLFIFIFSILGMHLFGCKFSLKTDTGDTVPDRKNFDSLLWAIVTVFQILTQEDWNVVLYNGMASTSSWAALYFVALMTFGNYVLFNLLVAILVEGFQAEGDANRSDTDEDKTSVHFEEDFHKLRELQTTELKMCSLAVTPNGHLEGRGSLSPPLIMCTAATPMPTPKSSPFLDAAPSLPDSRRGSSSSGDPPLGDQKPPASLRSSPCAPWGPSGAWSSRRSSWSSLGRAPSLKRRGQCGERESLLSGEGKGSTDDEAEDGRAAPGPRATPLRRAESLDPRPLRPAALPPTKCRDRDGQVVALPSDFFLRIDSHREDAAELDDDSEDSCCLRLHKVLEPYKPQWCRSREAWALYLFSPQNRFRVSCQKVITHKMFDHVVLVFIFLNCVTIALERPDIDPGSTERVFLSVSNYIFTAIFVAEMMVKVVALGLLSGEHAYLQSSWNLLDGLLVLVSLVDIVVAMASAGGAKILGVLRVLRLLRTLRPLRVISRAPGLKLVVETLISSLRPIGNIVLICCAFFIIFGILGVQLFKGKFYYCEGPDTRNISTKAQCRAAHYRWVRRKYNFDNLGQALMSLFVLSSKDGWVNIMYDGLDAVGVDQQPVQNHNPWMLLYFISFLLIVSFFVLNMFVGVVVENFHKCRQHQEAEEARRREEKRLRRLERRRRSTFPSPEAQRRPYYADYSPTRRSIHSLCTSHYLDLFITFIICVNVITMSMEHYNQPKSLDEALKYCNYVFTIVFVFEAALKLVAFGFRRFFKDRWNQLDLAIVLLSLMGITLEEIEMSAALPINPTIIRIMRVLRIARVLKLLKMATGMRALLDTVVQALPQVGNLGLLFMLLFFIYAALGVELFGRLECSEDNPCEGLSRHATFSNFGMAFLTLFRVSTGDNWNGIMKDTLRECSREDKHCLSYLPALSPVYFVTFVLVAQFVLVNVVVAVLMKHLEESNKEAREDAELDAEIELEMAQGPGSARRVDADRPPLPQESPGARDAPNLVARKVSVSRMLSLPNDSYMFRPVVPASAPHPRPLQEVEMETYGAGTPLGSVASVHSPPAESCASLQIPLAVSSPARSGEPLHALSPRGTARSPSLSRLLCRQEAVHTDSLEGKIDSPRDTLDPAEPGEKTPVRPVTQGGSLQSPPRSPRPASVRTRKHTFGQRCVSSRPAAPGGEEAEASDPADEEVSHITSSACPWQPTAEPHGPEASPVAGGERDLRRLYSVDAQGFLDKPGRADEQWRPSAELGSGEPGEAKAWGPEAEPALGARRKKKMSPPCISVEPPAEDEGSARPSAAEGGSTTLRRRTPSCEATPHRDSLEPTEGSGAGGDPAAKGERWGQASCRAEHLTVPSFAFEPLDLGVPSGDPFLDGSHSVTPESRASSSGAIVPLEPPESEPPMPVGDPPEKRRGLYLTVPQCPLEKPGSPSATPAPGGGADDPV

[13] = inhibitors of intracellular T. cruzi replication, confirmation, NIH3T3 host cells, beta-gal luminescence (AID 2044); format: functional, cell-based;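 note: intracellular parasites grown in NIH/3T3 mouse fibroblasts as host cells; luminescent beta-galactosidase reporter signal from transgenic T. cruzi replicating inside host cells; inhibitors lower the luminescence signal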
[14] = system: HEK293; experiment: cells; settings: Homo sapiens; remark: listed apart in the source
[15] = cytotoxicity toward NIH3T3 fibroblasts, dose response, counter-screen, cell-based, ATP luminescence, mouse fibroblasts (AID 2010); format: functional;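 note: cells exposed to compound for about 90 hours before reading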
[16] = cells; format: functional
[17] = THP-1 cell cytotoxicity, dose response, cytotoxicity control for non-replicating M. tuberculosis project (AID 489025); format: functional
[18] = system: Streptococcus sp. 'group A'; experiment: growth inhibition of control SK(-) GAS strain, dose response, counter-screen for streptokinase expression inhibitor project, luminescence, kanamycin, BacTiterGlo, confirmation (AID 1900); format: functional, organism-based
[19] = HepG2 cell cytotoxicity, dose response, cytotoxicity control for non-replicating M. tuberculosis project (AID 489018); format: functional; settings: Mycobacterium tuberculosis
[20] = system: Streptococcus; experiment: Group A Streptococcus viability loss, dose response, counter-screen for streptokinase expression inhibitor project, luminescence, BacTiterGlo (AID 1915); format: functional, organism-based;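 note: potency for reduction of bacterial viability or growth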
[21] = Vero E6 cell cytotoxicity, dose response, cytotoxicity control for non-replicating M. tuberculosis project, secondary assay (AID 492998); format: functional, VeroE6; settings: Vero C1008
[22] = molecular target: T5, Protein RecA (Mycobacterium tuberculosis, UniProt P9WHJ3); experiment: Fluorescence Cell-Free Homogeneous Dose Retest to Identify Inhibitors of RecA-Intein Splicing Activity. [Related pubchem assays (depositor defined):AID2097, AID2223, AID489010, AID492950]; format: functional
T5 sequence (P9WHJ3 whole entry): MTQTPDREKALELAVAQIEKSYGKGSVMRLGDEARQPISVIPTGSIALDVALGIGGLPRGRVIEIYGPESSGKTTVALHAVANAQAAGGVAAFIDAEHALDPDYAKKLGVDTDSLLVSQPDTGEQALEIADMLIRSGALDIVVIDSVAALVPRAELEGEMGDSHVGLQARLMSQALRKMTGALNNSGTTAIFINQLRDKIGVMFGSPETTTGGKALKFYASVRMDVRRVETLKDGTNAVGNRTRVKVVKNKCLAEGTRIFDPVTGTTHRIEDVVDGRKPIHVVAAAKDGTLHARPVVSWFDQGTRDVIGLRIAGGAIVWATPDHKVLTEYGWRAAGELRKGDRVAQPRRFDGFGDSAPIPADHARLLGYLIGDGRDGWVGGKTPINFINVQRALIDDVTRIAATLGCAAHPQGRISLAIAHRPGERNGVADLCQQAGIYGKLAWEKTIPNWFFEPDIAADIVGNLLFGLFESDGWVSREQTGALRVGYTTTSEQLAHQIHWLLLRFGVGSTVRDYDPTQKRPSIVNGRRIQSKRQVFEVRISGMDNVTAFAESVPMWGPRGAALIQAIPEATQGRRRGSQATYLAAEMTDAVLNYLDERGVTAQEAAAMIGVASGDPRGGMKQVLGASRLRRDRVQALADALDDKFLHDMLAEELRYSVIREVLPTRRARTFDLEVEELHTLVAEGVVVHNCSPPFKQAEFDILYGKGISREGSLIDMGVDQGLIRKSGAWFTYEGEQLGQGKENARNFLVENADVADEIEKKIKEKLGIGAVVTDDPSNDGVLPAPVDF

[23] = molecular target: Potassium voltage-gated channel subfamily KQT member 2 (Rattus norvegicus, UniProt O88943, W236L); experiment: KCNQ2 channel potentiators, dose response, mechanism study for KCNQ2 potentiator project, cell-based, automated electrophysiology (AID 2603); format: functional
Chain of Potassium voltage-gated channel subfamily KQT member 2 (O88943 whole entry W236L): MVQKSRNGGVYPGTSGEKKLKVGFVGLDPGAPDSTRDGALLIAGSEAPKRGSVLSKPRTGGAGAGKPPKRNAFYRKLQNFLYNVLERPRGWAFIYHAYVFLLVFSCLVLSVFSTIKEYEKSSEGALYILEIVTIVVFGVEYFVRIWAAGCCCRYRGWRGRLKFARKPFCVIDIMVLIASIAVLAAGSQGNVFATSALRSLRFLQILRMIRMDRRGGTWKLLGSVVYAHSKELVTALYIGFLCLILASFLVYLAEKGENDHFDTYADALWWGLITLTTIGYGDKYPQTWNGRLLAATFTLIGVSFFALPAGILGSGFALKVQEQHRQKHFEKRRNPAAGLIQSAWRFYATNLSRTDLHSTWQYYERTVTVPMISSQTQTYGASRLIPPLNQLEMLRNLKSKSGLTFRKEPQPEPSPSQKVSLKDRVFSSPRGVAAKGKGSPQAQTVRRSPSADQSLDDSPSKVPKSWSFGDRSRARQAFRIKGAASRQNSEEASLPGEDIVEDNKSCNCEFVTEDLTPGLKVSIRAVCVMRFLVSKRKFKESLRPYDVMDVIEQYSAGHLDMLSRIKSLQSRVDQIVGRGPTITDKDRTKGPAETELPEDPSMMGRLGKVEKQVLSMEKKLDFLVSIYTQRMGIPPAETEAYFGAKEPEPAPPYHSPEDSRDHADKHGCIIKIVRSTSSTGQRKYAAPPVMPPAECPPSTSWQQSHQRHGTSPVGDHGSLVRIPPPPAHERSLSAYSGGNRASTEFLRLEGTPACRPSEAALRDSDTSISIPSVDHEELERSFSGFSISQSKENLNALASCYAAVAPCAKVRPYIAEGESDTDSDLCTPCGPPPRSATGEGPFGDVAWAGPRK

[24] = molecular target: T6, Replicative DNA helicase DnaB (Mycobacterium tuberculosis, UniProt P9WMR3); experiment: DnaB intein splicing inhibitors, dose response, biochemical, cell-free fluorescence (AID 449749); format: functional
T6 sequence (P9WMR3 whole entry): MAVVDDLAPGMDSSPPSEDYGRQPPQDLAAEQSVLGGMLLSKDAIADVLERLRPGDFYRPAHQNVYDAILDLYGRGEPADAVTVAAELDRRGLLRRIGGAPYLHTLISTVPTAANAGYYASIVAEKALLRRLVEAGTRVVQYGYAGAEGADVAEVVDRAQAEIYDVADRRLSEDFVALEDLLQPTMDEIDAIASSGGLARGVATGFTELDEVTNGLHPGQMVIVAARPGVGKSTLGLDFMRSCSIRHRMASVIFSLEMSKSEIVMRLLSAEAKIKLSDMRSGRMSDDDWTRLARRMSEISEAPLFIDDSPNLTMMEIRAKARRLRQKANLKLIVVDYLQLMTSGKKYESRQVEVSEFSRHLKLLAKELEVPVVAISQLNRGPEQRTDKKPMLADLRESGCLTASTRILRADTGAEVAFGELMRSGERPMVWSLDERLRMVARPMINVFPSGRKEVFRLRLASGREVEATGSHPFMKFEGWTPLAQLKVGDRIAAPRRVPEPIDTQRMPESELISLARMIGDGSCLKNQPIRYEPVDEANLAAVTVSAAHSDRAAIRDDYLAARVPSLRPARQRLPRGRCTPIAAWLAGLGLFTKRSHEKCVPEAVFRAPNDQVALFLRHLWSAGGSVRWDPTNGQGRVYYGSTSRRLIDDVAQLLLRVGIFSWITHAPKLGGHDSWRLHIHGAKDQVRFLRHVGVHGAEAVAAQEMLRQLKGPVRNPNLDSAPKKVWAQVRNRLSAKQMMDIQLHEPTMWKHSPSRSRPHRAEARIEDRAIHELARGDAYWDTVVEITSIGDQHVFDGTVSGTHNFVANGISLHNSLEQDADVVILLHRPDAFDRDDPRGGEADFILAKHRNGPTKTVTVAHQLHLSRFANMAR

[25] = cytotoxicity in HEK-293T cells, dose response, cytotoxicity control for TCR NF-kB inhibitor project, luminescence, T-cell screen hits (AID 489026); format: functional, cell-based;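 note: cells exposed to compound about 14 hours before the viability readout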

T1 sequence (P11712 whole entry): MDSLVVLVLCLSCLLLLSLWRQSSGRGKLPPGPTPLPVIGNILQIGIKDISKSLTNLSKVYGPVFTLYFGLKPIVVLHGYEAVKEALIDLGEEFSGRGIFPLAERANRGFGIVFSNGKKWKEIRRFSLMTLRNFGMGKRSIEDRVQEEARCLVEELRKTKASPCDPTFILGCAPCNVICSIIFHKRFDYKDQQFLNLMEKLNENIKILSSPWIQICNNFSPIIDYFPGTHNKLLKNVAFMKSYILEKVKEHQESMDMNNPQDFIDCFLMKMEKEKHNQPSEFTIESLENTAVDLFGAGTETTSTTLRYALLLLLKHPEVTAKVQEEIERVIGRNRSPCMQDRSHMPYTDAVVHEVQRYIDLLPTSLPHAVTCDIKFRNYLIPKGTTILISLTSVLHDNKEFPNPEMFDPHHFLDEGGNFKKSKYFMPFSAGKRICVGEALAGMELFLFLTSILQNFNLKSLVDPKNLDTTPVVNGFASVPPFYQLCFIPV
Chain of Cytochrome P450 2D6 (P10635 whole entry): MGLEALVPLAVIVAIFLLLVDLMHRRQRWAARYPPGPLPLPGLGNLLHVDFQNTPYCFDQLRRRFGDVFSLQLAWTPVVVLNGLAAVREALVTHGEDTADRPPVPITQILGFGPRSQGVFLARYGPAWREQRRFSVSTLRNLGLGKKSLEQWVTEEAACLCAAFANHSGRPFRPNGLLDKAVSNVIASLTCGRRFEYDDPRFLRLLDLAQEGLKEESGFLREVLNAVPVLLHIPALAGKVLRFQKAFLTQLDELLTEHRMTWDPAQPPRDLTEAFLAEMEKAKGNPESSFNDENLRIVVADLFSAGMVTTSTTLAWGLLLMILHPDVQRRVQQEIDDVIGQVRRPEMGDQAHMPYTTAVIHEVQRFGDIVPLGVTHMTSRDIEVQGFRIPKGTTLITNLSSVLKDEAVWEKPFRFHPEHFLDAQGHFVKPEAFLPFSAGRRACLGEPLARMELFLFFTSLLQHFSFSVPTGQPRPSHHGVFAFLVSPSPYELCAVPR

## COc1ccc(C#CC2C=CC(Oc3cc(C)cc(C)c3)C(CO)O2)cc1 (stereo not drawn)
[1]
  AC50: 2 µM (inconclusive)

## CCCNC(=O)c1cc2c(C(F)(F)F)nn(C)c2s1
[2]
  AC50: inconclusive
[3]
  AC50: 31.6 µM (inconclusive)

## O=C(NCCCN1CCOCC1)c1cc(-c2ccc(Br)cc2)on1
[4]
  IC50: > 80 µM (inactive)

## O=C(O)c1cc(-c2ccccc2O)n[nH]1
[5]
  IC50: > 100 µM (inactive)
[6]
  IC50: > 100 µM (not active)

## Cc1ccc(S(=O)(=O)Nc2cnc3ccccc3c2)c(C)c1C
[5]
  IC50: > 100 µM (inactive)
[6]
  IC50: > 100 µM (not active)

## O=C(CSc1nc2ccccc2c(=O)n1-c1ccc(F)cc1)Nc1ccc2c(c1)OCCO2
[7]
  CC50: > 40 µM (active)

## CCCCC#CC1C=CC(Oc2ccc(C(=O)OC)cc2)C(COC(=O)OCC)O1 (stereo not drawn)
[1]
  AC50: 3.16 µM (inconclusive)

## CCCCC1C(=O)N(c2ccccc2)N(c2ccccc2)C1=O [PHENYLBUTAZONE]
[8]
  Ki: 5.3 µM (active)
[1]
  AC50: 31.6 µM (inconclusive)
[9]
  IC50: > 50 µM (not active)

## O=C(O)c1ccc(/C=N\N=C2c3ccccc3-c3ccccc32)cc1
[2]
  AC50: inconclusive
[10]
  AC50: 7.94 µM (inconclusive)

## CCC(C)(C)n1nnnc1C(c1ccc(C)cc1)N(Cc1ccco1)Cc1cccs1 (stereo not drawn)
[11]
  EC50: > 59.6 µM (inactive)
[12]
  EC50: 6.74 µM (active)
[13]
  EC50: 2.86 µM (active)
[14]
  EC50: > 59.6 µM (inactive)
[15]
  EC50: > 60 µM (not active)

## O=S(=O)(Nc1cnc2ccccc2c1)c1cc(Cl)ccc1F
[5]
  IC50: 4.26 µM (active)
[6]
  IC50: > 100 µM (not active)

## COc1ccc(-c2csc(NC(=O)c3cccc(Cl)c3)n2)cc1
[7]
  CC50: > 40 µM (active)

## CN(c1ccccc1)S(=O)(=O)c1ccc(C(=O)Nc2nnc(-c3ccc(F)cc3)o2)cc1
[16]
  IC50: > 50 µM (active)
[17]
  CC50: 17.2 µM (active)
[18]
  EC50: 0.159 µM (active)
[19]
  CC50: 15.6 µM (active)
[20]
  EC50: 2.93 µM (active)
[21]
  CC50: 7.81 µM (active)

## CC(C)c1nnc(NC(=O)c2nc(S(=O)(=O)Cc3ccccc3F)ncc2Cl)s1
[22]
  EC50: 3.16 µM (active)
[23]
  EC50: 8.4 µM (active)
[24]
  AC50: 4.25 µM (active)

## CC(=O)Nc1ccc(S(=O)(=O)N2CCCc3ccccc32)cc1
[25]
  IC50: > 80 µM (inactive)

Source: ChEMBL document CHEMBL1201862, “PubChem BioAssay data set” (2004)
